For one compound, IC50 results are on record in US20020114813A1, “Compounds” (priority 1990, published 2002).

Read-outs that look alike come from different tables or passages of the source.

The test system of this assay is H.Ep-2 cell line. Briefly: Cytotoxicity in vitro, cell survival by trypan blue exclusion. It is filed as cell-based. The settings on record: Homo sapiens, read-out: IC50 (dose required to give 50% cell survival). How it is done:
Cytotoxicity in vitro. The human epidermoid carcinoma cell line H.Ep-2 was originally obtained from a metastatic nodule in the neck of a patient with a primary tumour of the larynx. it was established in tissue culture after two generations in X-irradiated, cortisone-treated rats. Immunocytochemistry has shown the cells to bind the H17E2 antibody, but not HMFGl, which was used as a negative control in these studies. Cells were cultured in RPMI 1640 tissue culture medium supplemented with 10% foetal calf serum (Gibco Ltd, Paisley, Scotland). For cell survival experiments, after harvesting with 0.02% EDTA, 5×10^5 cells were plated in quadruplicate into 25-cm^2 Falcon flasks (Becton Dickinson, N.J., USA). Twenty-four hours later the cytotoxic agent was added (either amygdalin alone, β-glucosidase alone, amygdalin plus β-glucosidase, potassium cyanide alone, amygdalin plus H17E2β-glucosidase conjugate or amygdalin plus HMFGl-β-glucosidase conjugate). After 24 h exposure, the medium containing the drug was replaced with fresh medium and the cells allowed to grow for a further 24 h before counting by haemacytometry, using trypan blue exclusion as the criterion for cell integrity.

A word on the IC50: it is the concentration needed to halve the response being measured. Regarding `N#C[C@H](O[C@@H]1O[C@H](CO[C@@H]2O[C@H](CO)[C@@H](O)[C@H](O)[C@H]2O)[C@@H](O)[C@H](O)[C@H]1O)c1ccccc1` [amygdalin, D-mandelonitrile-β-D-glucosido-6-β-D-glycoside], the IC50 by setting is: (HEp-2, in the presence of 0.35 μM β-glucosidase) 600 ± 300 µM; (HEp-2, in the presence of 3.5 μM β-glucosidase) 500 ± 200 µM.
